Measured values as given in ChEMBL document CHEMBL1149882, “Sesterterpenoids from the sponge Sarcotragus sp” (J Nat Prod, 2008).
In brackets after ≈: the same amount, converted by molar mass.

Tests used:
[1] = tested on: Micrococcus luteus; experiment: Antimicrobial activity against Micrococcus luteus IFC12708; type: functional
[2] = tested on: Staphylococcus aureus; experiment: Antimicrobial activity against methicillin-resistant Staphylococcus aureus ATCC 43300; type: functional
[3] = tested on: Bacillus subtilis; experiment: Antimicrobial activity against Bacillus subtilis ATCC 6633; type: functional
[4] = biological target: Isocitrate lyase (Candida albicans, UniProt Q9P8Q7); experiment: Inhibition of Candida albicans isocitrate lyase
Chain of Isocitrate lyase (Q9P8Q7 whole entry): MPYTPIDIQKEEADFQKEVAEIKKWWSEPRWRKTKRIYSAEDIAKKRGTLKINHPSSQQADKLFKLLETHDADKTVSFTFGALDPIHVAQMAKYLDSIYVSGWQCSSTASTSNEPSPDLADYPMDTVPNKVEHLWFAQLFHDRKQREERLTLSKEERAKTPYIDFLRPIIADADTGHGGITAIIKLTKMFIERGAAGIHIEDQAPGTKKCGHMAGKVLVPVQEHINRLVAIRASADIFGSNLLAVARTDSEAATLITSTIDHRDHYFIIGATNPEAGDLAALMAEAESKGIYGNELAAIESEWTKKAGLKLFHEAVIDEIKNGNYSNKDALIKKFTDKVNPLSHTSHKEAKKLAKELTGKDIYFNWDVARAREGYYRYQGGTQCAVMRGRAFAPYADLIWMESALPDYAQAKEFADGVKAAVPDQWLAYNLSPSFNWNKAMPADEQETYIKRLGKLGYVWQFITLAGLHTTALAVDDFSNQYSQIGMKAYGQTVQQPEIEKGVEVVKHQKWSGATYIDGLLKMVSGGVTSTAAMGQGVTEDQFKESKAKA

[5] = tested on: Escherichia coli; experiment: Antimicrobial activity against Escherichia coli ATCC 11775; type: functional
[6] = tested on: Staphylococcus aureus; experiment: Antimicrobial activity against methicillin-resistant Staphylococcus aureus ATCC 700788; type: functional
[7] = tested on: Proteus vulgaris; experiment: Antimicrobial activity against Proteus vulgaris ATCC 3851; type: functional
[8] = tested on: Staphylococcus aureus; experiment: Antimicrobial activity against Staphylococcus aureus ATCC 65389; type: functional
[9] = tested on: K562; experiment: Cytotoxicity against human K562 cells by MTT assay; type: functional; conditions: read-out: LC50 (the source's name)
[10] = tested on: Salmonella typhimurium; experiment: Antimicrobial activity against Salmonella Typhimurium ATCC 14028; type: functional, Salmonella enterica subsp. enterica serovar Typhimurium; conditions: Salmonella enterica
[11] = tested on: Staphylococcus aureus; experiment: Antimicrobial activity against methicillin-resistant Staphylococcus aureus ATCC 700787; type: functional

| Compound | MIC [1] [µg/mL] | MIC [2] [µg/mL] | MIC [3] [µg/mL] | IC50 [4] [µM] | MIC [5] [µg/mL] | MIC [6] [µg/mL] | MIC [7] [µg/mL] | MIC [8] [µg/mL] | CC50 [9] [µg/mL] | MIC [10] [µg/mL] | MIC [11] [µg/mL] |
| --- | --- | --- | --- | --- | --- | --- | --- | --- | --- | --- | --- |
| COC1C=C(CC/C=C(\C)CC/C=C(\C)CCC[C@@H](C)/C=C2\OC(=O)C(C)=C2O)C(OC)O1 (stereo not given in full) | 50 (≈ 109 µM) | 50 (≈ 109 µM) | 50 (≈ 109 µM) | 91.4 | > 100 | 100 (≈ 217 µM) | 100 (≈ 217 µM) | 100 (≈ 217 µM) | 80 (≈ 174 µM) | > 100 | 50 (≈ 109 µM) |
| CC1=C(O)/C(=C/[C@H](C)CC/C=C(/C)CC/C=C(/C)CCCC2=CC(=O)OC2O)OC1=O (stereo not given in full) | 50 (≈ 116 µM) | 100 (≈ 232 µM) | > 100 | 91.5 | > 100 | > 100 | > 100 | > 100 | > 100 | > 100 | 100 (≈ 232 µM) |
| C/C(=C/CC[C@@H](C)CC(=O)O)CC/C=C(/C)CCCc1ccoc1 | 6.25 (≈ 18.8 µM) | 12.5 (≈ 37.6 µM) | 25 (≈ 75.2 µM) | 241 | > 100 | 25 (≈ 75.2 µM) | 25 (≈ 75.2 µM) | 25 (≈ 75.2 µM) | > 100 | 12.5 (≈ 37.6 µM) | 25 (≈ 75.2 µM) |
| C/C(=C/CC[C@@H](C)CC(=O)O)CC/C=C(/C)CCCC1=CC(=O)OC1=O | 100 (≈ 276 µM) | > 100 | > 100 | 54.9 | > 100 | > 100 | > 100 | > 100 | > 100 | > 100 | > 100 |
| CC1=C(O)/C(=C/[C@H](C)CC/C=C(/C)CC/C=C(/C)CCCC2=CC(O)OC2=O)OC1=O (stereo not given in full) | 100 (≈ 232 µM) | > 100 | > 100 | – | > 100 | > 100 | > 100 | > 100 | > 100 | > 100 | > 100 |
| COC1C=C(CCC/C(C)=C\CC/C(C)=C\CC[C@@H](C)/C=C2\OC(=O)C(C)=C2O)C(OC)O1 (stereo not given in full) | 50 (≈ 109 µM) | 100 (≈ 217 µM) | 50 (≈ 109 µM) | 95.1 | > 100 | 100 (≈ 217 µM) | > 100 | 100 (≈ 217 µM) | 83 (≈ 180 µM) | > 100 | 100 (≈ 217 µM) |
| COC(=O)C(C)(O)[C@](O)(C[C@H](C)CCC/C(C)=C/CC/C(C)=C/CCc1ccoc1)C(=O)OC (stereo not given in full) | 100 (≈ 209 µM) | > 100 | > 100 | > 418 | > 100 | > 100 | > 100 | > 100 | 20 (≈ 41.8 µM) | > 100 | > 100 |
| COC(=O)C(C)(O)[C@](O)(C[C@H](C)CC/C=C(/C)CC/C=C(/C)CCCc1ccoc1)C(=O)OC (stereo not given in full) | > 100 | > 100 | > 100 | 188 | > 100 | > 100 | > 100 | > 100 | 34 (≈ 71 µM) | > 100 | > 100 |
| COC(=O)C(C)(O)[C@](O)(C[C@H](C)CCC/C(C)=C/CC/C(C)=C/CCC1=CCN(CC(=O)O)C1=O)C(=O)OC (stereo not given in full) | > 100 | > 100 | > 100 | > 363 | > 100 | > 100 | > 100 | > 100 | > 100 | > 100 | > 100 |
| CC1=C(O)/C(=C/[C@H](C)CC/C=C(/C)CC/C=C(/C)CCCc2ccoc2)OC1=O | 3.12 (≈ 7.84 µM) | 6.25 (≈ 15.7 µM) | 3.12 (≈ 7.84 µM) | 81.5 | > 100 | 12.5 (≈ 31.4 µM) | 6.25 (≈ 15.7 µM) | 3.12 (≈ 7.84 µM) | 62 (≈ 156 µM) | 6.25 (≈ 15.7 µM) | 6.25 (≈ 15.7 µM) |
| COC(=O)C(C)(O)[C@](O)(C[C@H](C)CC/C=C(/C)CC/C=C(/C)CCCC1=CCN(CC(=O)O)C1=O)C(=O)OC (stereo not given in full) | > 100 | > 100 | > 100 | 358 | > 100 | > 100 | > 100 | > 100 | > 100 | > 100 | > 100 |
| CC1(C)S[C@@H]2[C@H](NC(=O)[C@H](N)c3ccccc3)C(=O)N2[C@H]1C(=O)O [AMPICILLIN] | 12.5 (≈ 35.8 µM) | – | 3.12 (≈ 8.94 µM) | – | 1.56 (≈ 4.47 µM) | – | 3.12 (≈ 8.94 µM) | 1.56 (≈ 4.47 µM) | – | 1.56 (≈ 4.47 µM) | – |
| CC1=C(O)/C(=C/[C@H](C)CCC/C(C)=C/CC/C(C)=C/CCc2ccoc2)OC1=O | 12.5 (≈ 31.4 µM) | 50 (≈ 125 µM) | 6.25 (≈ 15.7 µM) | 81.5 | > 100 | 50 (≈ 125 µM) | 12.5 (≈ 31.4 µM) | 12.5 (≈ 31.4 µM) | 39 (≈ 97.9 µM) | 25 (≈ 62.7 µM) | 50 (≈ 125 µM) |
| C=C(CC(=O)O)C(=O)O [ITACONATE] | – | – | – | 37.7 | – | – | – | – | – | – | – |
| CC1=C(O)/C(=C/[C@H](C)CCC/C(C)=C/CCC(C)(O)CCCc2ccoc2)OC1=O (stereo not given in full) | 100 (≈ 240 µM) | 100 (≈ 240 µM) | > 100 | 55.7 | > 100 | > 100 | > 100 | > 100 | > 100 | > 100 | > 100 |
| CC1=C(O)/C(=C/[C@H](C)CCC/C(C)=C/CC/C(C)=C/CCC2=CC(O)OC2=O)OC1=O (stereo not given in full) | 50 (≈ 116 µM) | > 100 | > 100 | 29 | > 100 | > 100 | > 100 | > 100 | > 100 | > 100 | > 100 |
| COC(=O)C(C)(O)[C@@](O)(C[C@H](C)CC/C=C(/C)CC/C=C(/C)CCCc1ccoc1)C(=O)OC (stereo not given in full) | 50 (≈ 104 µM) | > 100 | > 100 | 253 | > 100 | > 100 | > 100 | > 100 | 46 (≈ 96.1 µM) | > 100 | > 100 |
| C/C(=C\CCc1ccoc1)CC/C=C(\C)CCC[C@@H](C)CC(=O)O | 12.5 (≈ 37.6 µM) | 25 (≈ 75.2 µM) | > 100 | > 602 | > 100 | > 100 | 50 (≈ 150 µM) | 100 (≈ 301 µM) | > 100 | 50 (≈ 150 µM) | 100 (≈ 301 µM) |
| Cc1onc(-c2ccccc2)c1C(=O)N[C@@H]1C(=O)N2[C@@H]1SC(C)(C)[C@@H]2C(=O)O [OXACILLIN] | – | 25 (≈ 62.3 µM) | – | – | – | 25 (≈ 62.3 µM) | – | – | – | – | 50 (≈ 125 µM) |
